Read-outs that look alike come from different tables or passages of the source.

Series [1] can be described thus: Pharmacokinetics in male Han Wistar rats, intravenous and oral. The conditions noted are these: rat, 1.0 mg/kg; for AUC(0-inf) / AUC(0-t) / clearance / Vd / half-life / Cmax / Tmax / bioavailability: male, Han Wistar, plasma; for clearance: read-out: CLp* (converted); for Vd: read-out: Vss*; for half-life: read-out: t½* (converted); for bioavailability: po, 1 mg/kg, read-out: F %. Format: in vivo. As for the experimental part:
Determination of PK of the Invention Compounds
The pharmacokinetics of compounds E10, E16, E34, E38, E51, were studied in male Han Wistar rats. The rats were treated intravenously and orally (n=3 for each dose route) with a compounds formulated as solutions. The rats were fitted with a jugular cannula for serial sampling. A full profile was acquired for each rat. Plasma extracts were quantitatively analyzed using a specific and sensitive LC-MS/MS bioanalytical method. Inter-individual variations between the three rats in each group were limited (CV for pharmacokinetic parameters was below 50%).

For series [2], the target named is T1, human EP4 receptor (Homo sapiens, UniProt P35408).
T1 construct: expressed in transfected cells; membrane fraction used
Nature of the series: [3H]-Prostaglandin E2 membrane binding assay (human EP4/HEK293 transfectant membranes). To be noted: [3H]-PGE2 1 nM, hEP4/HEK293 membranes; Ki by Cheng-Prusoff; read-out: Binding pKi (converted). The procedure, abridged: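 HEK293 membranes stably expressing human EP4 (10 µg protein) incubated with 1 nM [3H]-PGE2 in 10 mM MES-KOH pH 6, 10 mM MgCl2, 1 mM CaCl2, 90 min at room temperature; nonspecific binding with 1 µM PGE2. Filtration, scintillation counting; Ki via Cheng-Prusoff, reported as pKi; compounds tested 1 nM–1 µM.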

Series [3] concerns the target T1, human EP4 receptor. The series can be described thus: cAMP assay (AlphaScreen) on human EP4 membrane of transfected cells, antagonism of PGE2. Format: biochemical. To be noted: HEK293 hEP4 cell membrane stimulated with PGE2 3 nM; read-out: functional IC50. The procedure, abridged:
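Membranes of HEK293 cells stably expressing human EP4 (1 μg/well) in HBSS/IBMX 0.5 mM/GTP/GDP/ATP buffer, pH 7.4, preincubated 30 min at 22-23 °C with compound plus PGE2 3 nM. cAMP quantified by AlphaScreen competition with biotinylated cAMP after 1 h. IC50 from cAMP standard curve by linear regression.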

T1 sequence (P35408 whole entry): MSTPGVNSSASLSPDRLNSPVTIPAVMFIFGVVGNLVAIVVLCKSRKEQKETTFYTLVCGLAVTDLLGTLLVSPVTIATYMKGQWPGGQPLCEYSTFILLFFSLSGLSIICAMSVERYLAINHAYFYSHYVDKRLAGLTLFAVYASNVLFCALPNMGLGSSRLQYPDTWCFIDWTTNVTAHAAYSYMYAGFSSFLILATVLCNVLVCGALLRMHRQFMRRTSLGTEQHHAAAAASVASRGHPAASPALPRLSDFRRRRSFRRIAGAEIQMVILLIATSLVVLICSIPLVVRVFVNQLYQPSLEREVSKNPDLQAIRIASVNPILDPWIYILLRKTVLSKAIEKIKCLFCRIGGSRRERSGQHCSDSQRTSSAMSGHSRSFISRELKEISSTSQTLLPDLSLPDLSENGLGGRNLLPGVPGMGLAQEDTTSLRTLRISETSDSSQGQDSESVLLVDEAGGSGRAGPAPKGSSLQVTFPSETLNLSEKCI

For the compound `Cc1cc(F)ccc1NC1CN(c2ncc(C(F)(F)F)cc2C(=O)NC2(c3ccc(C(=O)O)cc3)CC2)C1` [E 51, 4-(1-(2-(3-((4-fluoro-2-methylphenyl)amino)azetidin-1-yl)-5-(trifluoromethyl)nicotinamido)cyclopropyl)benzoic acid], in series [1] (IV), the AUC(0-inf) was determined as 389 ng·h/mL, the area under the curve AUC(0-t) came to 385 ng·h/mL, the clearance was 11.2 mL/min and the Vd is 0.447 L. In series [1] (IV), the half-life is 1.12 h and the Tlast is 6 h. In addition, in series [1] (PO), the AUC(0-inf) stood at 231 ng·h/mL, the area under the curve AUC(0-t) was 225 ng·h/mL, the highest level (Cmax) was 151 ng/mL and the Tmax was 0.25 h. In series [1] (PO), the half-life is 1.14 h, the bioavailability was 58% and the Tlast turned out to be 6 h. Further, at human EP4 receptor [2], the Ki was 6.31 nM. Further, the IC50 at human EP4 receptor [3] stood at 28 nM.

As to `Cc1cc(F)ccc1NC1CN(c2ncc(Cl)cc2C(=O)NC2(c3ccc(C(=O)O)cc3)CC2)C1` [E 34, 4-(1-(5-chloro-2-(3-((4-fluoro-2-methylphenyl)amino)azetidin-1-yl)nicotinamido)cyclopropyl)benzoic acid], in series [1] (IV), the AUC(0-inf) was 302 ng·h/mL, the exposure AUC(0-t) was 300 ng·h/mL, the clearance was 14.4 mL/min and the Vd came out at 0.227 L. Besides, in series [1] (IV), the half-life was 0.34 h and the Tlast stood at 2 h. In series [1] (PO), the AUC(0-inf) came out at 128 ng·h/mL, the area under the curve AUC(0-t) turned out to be 125 ng·h/mL, the Cmax was 98.1 ng/mL and the Tmax amounted to 0.25 h. In series [1] (PO), the half-life is 1.16 h, the bioavailability amounted to 42% and the Tlast amounted to 6 h. Besides, the Ki on human EP4 receptor [2] was 3.16 nM. Besides, on human EP4 receptor [3], the IC50 amounted to 43 nM.

`O=C(O)c1ccc(C2(NC(=O)c3cc(C(F)(F)F)cnc3N3CC(Oc4cccc(F)c4)C3)CC2)cc1` [E 38, 4-(1-(2-(3-(3-fluorophenoxy)azetidin-1-yl)-5-(trifluoromethyl)nicotinamido)cyclopropyl)benzoic acid]: in series [1] (IV), the AUC(0-inf) came out at 832 ng·h/mL, the AUC(0-t) came out at 816 ng·h/mL, the clearance was 5.68 mL/min and the Vd is 1.07 L. For the same compound, in series [1] (IV), the half-life was 5.9 h and the Tlast is recorded as 24 h. Moreover, in series [1] (PO), the area under the curve AUC(0-inf) was determined as 598 ng·h/mL, the AUC(0-t) worked out at 551 ng·h/mL, the Cmax was 374 ng/mL and the time of peak concentration (Tmax) turned out to be 0.25 h. In series [1] (PO), the half-life is 2.59 h, the bioavailability was 59% and the Tlast was determined as 6 h. The Ki on human EP4 receptor [2] was 12.6 nM. Also, the IC50 on human EP4 receptor [3] was 19.3 nM.

The term AUC(0-inf) denotes total exposure, with the tail of the curve extrapolated. Read a high AUC(0-inf) as more exposure. The AUC(0-t) is the area under the concentration-time curve up to a stated or last time point. Low values mean low exposure, high ones high exposure. One may read the Cmax as the maximum level reached in the sampled fluid or tissue. As usually defined, the Tmax is the time from dosing to the highest level. What is called IC50 is the concentration that gives 50% inhibition.
